Measurements as given in patent US20090175845A1, “METHODS FOR IDENTIFYING COMPOUNDS THAT MODULATE PHB DOMAIN PROTEIN ACTIVITY AND COMPOSITIONS THEREOF” (THE TRUSTEES OF COLUMBIA UNIVERSITY IN THE CITY OF NEW YORK, priority 2005, published 2009).

Columns and labels:
[1] = system: mec-2 null worms expressing the mec-2(C140/174A) gene; assay: C. elegans gentle touch sensitivity on plates with defined sterols; format: in vivo; details: sterol substituted for cholesterol in the growth medium, FIG. 8C
Protocol: C. elegans experiments. C. elegans strains were cultured at 20° C., assayed for touch sensitivity, and prepared for immunofluorescence as described previously [Zhang et al. (2004) Curr. Biol. 14:1888-96; Goodman et al. (2002) Nature 415:1039-42]. Briefly, C. elegans strains were cultured at 20° C. as described in the art. Strains were grown for at least three consecutive generations without starvation before carrying out the experiments described herein. Gentle touch and harsh touch sensitivity were assayed in blind tests by stimulating with an eyebrow hair or prodding with a platinum wire, respectively, as described in the art. To quantify the response, the number of responses in about 30 animals to 10 touches delivered alternately near the head and tail was recorded. Whole-mount immunofluorescence microscopy was carried out using methods known in the art.
Media for growth on limiting or no cholesterol or on other sterols were prepared from chloroform-extracted reagents as described by Matyash et al. [(2004) PLoS Biol. 2: e280].
First, a version of MEC-2 with reduced cholesterol binding was generating by mutating the predicted palmitoylation sites of the protein. Briefly, HEK293T cells were transfected with wild type MEC-2 or MEC-2(C140/174A) and labeled with [^3H]palmitic acid or [^3H]photoaffinity cholesterol. Equal expression of proteins in the lysates was confirmed on Western blots. […] Because touch sensitivity of wild-type animals was not affected by this limited cholesterol depletion, the effects observed with the palmitoylation mutant cannot be attributed to indirect effects on neuronal growth or development. Test compounds that target palmitoylation sites in PHB domain proteins can be used to modulate activity of such proteins, for example, by reducing their activity.

TRPC6 = biological target: T1, TRPC6 (Homo sapiens, UniProt Q9Y210); assay: Oocyte electrophysiology, two-electrode voltage clamp; format: cell-based; details: TRPC6-expressing Xenopus laevis oocytes, Ca2+ free bath solution, 10 μM
T1 construct: expressed in transfected cells; host or cells: Xenopus laevis oocytes (cRNA injection)
T1 sequence (Q9Y210 1-931): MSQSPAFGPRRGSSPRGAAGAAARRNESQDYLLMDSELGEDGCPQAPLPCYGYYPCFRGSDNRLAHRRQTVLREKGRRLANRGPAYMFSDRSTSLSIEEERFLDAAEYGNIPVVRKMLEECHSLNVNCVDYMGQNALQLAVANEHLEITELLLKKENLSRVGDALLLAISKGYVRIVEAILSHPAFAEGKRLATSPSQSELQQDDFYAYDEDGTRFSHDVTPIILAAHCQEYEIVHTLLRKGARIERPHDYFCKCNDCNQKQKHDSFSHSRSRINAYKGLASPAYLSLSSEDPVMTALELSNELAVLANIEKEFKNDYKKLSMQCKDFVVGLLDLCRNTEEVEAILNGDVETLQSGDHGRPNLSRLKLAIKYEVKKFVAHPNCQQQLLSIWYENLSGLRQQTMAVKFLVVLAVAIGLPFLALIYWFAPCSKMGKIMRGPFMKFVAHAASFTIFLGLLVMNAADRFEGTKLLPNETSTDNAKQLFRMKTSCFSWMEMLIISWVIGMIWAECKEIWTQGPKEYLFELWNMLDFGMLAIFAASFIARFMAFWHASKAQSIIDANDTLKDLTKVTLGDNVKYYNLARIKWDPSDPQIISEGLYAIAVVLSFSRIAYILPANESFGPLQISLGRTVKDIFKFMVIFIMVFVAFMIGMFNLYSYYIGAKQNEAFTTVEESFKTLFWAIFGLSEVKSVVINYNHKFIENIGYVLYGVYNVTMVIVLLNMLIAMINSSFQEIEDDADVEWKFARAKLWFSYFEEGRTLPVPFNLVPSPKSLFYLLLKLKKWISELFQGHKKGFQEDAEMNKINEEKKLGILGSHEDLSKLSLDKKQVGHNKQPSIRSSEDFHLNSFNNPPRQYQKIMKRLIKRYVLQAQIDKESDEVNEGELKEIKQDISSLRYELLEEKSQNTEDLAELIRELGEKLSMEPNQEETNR
Protocol: Oocyte Electrophysiology. Xenopus laevis oocytes were isolated from adult frogs (Kähler, Hamburg, Germany), dispersed and defolliculated by a 45 minute treatment with collagenase (type A, Boehringer, Germany), and were rinsed and kept at 18° C. in ND96-buffer (in mmol/l): NaCl 96, KCI 2, CaCl2 1.8, MgCl2 1, HEPES 5, Na-pyruvate 2.5, pH 7.55), supplemented with theophylline (0.5 mmol/l) and gentamycin (5 mg/l).
To prepare cRNAs for TRPC6, Podocin and Podocin-DPHB (Podocin-ΔPHB), cDNAs encoding TRPC6, Podocin and Podocin-DPHB were transcribed in vitro using the T7 promoter and polymerase (Promega, Madison, Wis.). After isolation from adult Xenopus laevis female frogs (Kähler, Hamburg, Germany), oocytes were dispersed and defolliculated by a 45 minute treatment with collagenase (type A, Boebringer, Germany). Subsequently, the oocytes were rinsed and kept at 18° C. in ND96-buffer (in mmol/l): NaCl 96, KCI 2, CaCI2 1.8, MgCI2 1, HEPES 5, Na-pyruvate 2.5, pH. […] Membrane currents were measured by voltage clamping of the oocytes (Warner oocyte clamp amplifier OC725C) in intervals from −60 to +40 mV, each 1 s. Conductances were calculated according to Ohm's law. Na^+ conductances were determined by replacing Na^+ by n-methyl-D-glucamine (GNMDG) in a Ca^2+ free bath solution, before and after stimulation with 10 μM dioctanoyl glycerol (Sigma, Germany). […]

Row | SMILES | rescue of reduced touch sensitivity [1] | inward Na+ current (TRPC6)
1 | CC(C)CCC[C@@H](C)[C@H]1CC[C@H]2C3=CC=C4C[C@@H](O)CC[C@]4(C)[C@H]3CC[C@]12C [7-dehydro cholesterol] | could be rescued | 
2 | CC(C)CCC[C@@H](C)[C@H]1CC[C@H]2C3=CC[C@H]4C[C@@H](O)CC[C@]4(C)[C@H]3CC[C@]12C [lathosterol] | could be rescued | 
3 | CCCCCCCC/C=C\CCCCCCCC(=O)OC[C@H](CO)OC(C)=O [OAG, 1-oleoyl-2-acetyl-sn-glycerol] |  | further augmented
4 | CC(C)[C@@H](C)/C=C/[C@@H](C)[C@H]1CC[C@H]2C3=CC=C4C[C@@H](O)CC[C@]4(C)[C@H]3CC[C@]12C [ergosterol] | could be rescued | 
